# Test results as given in US9809602B2, “Compounds for treating viral infections” (INSTITUT PASTEUR KOREA, priority 2014, dated 2017).
# System: genotype 1/2 chimeric cell culture derived HCV (HCVcc)
# Assay: Genotype 1/2 chimeric HCVcc assay (nano-luciferase, HCV replication)
# Type: cell-based
# Settings: Anti-HCVcc genotype 1/2 activity; Huh-7.5 cells, 72 h post infection, nano-luciferase
# Description: Naïve Huh-7.5 target cells were plated at 2400 cells/well in 25 μL of culture media in 384-well plates (Greiner bio-one, μ clear black). After overnight incubation, compounds serially diluted in 10 μL of cell culture media were added. After 2 h compound treatment, cells were inoculated with 40 μL of genotype 1/2 chimeric cell culture derived HCV (HCVcc) which express structural proteins of an HCV genotype 1a isolate (TN accession number EF621489) and non-structural proteins of HCV genotype 2a (JFH-1) with nano-luciferase reporter. At 72 h post infection, nano-luciferase activity (Nano-Glo™, Promega) and cellular ATP (Cell titer-Glo™, Promega) were measured as a marker for HCV replication and cytotoxicity, respectively. EC50 and CC50 were calculated by non-linear regression analyzing using GraphPad Prism (GraphPad Software).
row,Structure (SMILES),EC50 [nM]
1,CCOC(=O)c1c(NC(=O)NCc2c(C(F)(F)F)sc3c2CCN(C(=O)[C@H](C)N)C3)sc2c1CCCC2 [Compound 328],< 100

# Same assay, conditions: Hepatitis C virus
row,Structure (SMILES),EC50 [nM]
1,O=C(NCCCN1CCC(N2CCCCC2)CC1)c1ccc(-c2ccc(OC(F)(F)F)cc2)cc1 [Compound 1119],100 to 1000
2,O=C(NCCCN1CCC(N2CCCC2)CC1)c1ccc(Oc2ccccc2)cc1 [Compound 1067],100 to 1000
3,O=C(NCCCN1CCC(C2CCNCC2)CC1)c1ccc(Oc2ccccc2)cc1 [Compound 1072],1000 to 10000
4,O=S(=O)(NCCCN1CCC(N2CCCCC2)CC1)c1ccc(Oc2ccccc2)cc1 [Compound 1060],100 to 1000
5,O=C(NCCCN1CCC(N2CCCCC2)CC1)c1ccc(-c2ccc(C(F)(F)F)cc2)cn1 [Compound 1102],100 to 1000
6,Cc1ccc(-c2ccc(S(=O)(=O)NCCCN3CCC(N4CCCCC4)CC3)cc2)cc1 [Compound 1098],100 to 1000
7,O=S(=O)(NCCCN1CCC(N2CCCCC2)CC1)c1ccc(-c2ccccc2)cc1 [Compound 1090],100 to 1000
8,O=C(NCCCN1CCC(N2CCCCC2)CC1)c1ccc(Cc2ccccc2)cc1 [Compound 1012],100 to 1000
9,O=C(NCCCN1CCC(N2CCCCC2)CC1)c1ccc(-c2ccccc2C(F)(F)F)cc1 [Compound 1028],100 to 1000
10,O=C(NCCCN1CCC(N2CCCCC2)CC1)c1ccc(-c2ccc(C(F)(F)F)cc2)cc1C(F)(F)F [Compound 1104],100 to 1000
11,O=C(NCCCN1CCC(N2CCCCC2)CC1)c1ccc(-c2ccc(C(F)(F)F)cc2)cc1Cl [Compound 1112],100 to 1000
12,O=C(NCCCN1CCC(N2CCCCC2)CC1)c1cc(-c2ccc(C(F)(F)F)cc2)cs1 [Compound 1082],100 to 1000
13,COc1ccc(-c2ccc(S(=O)(=O)NCCCN3CCC(N4CCCCC4)CC3)cc2)cc1 [Compound 1097],100 to 1000
14,O=C(NCCCN1CCC(N2CCCCC2)CC1)c1ccc(-c2cccc(C(F)(F)F)c2)cc1 [Compound 1027],100 to 1000
15,O=C(NCCCN1CCC(N2CCCCC2)CC1)c1ccc(-c2ccc3c(c2)OCO3)cc1 [Compound 1130],100 to 1000
16,O=C(NCCCN1CCC(N2CCCCC2)CC1)c1ccc2cc[nH]c2c1 [Compound 1008],> 10000
17,O=C(NCCC(=O)N1CCC(N2CCCCC2)CC1)c1ccc(Oc2ccccc2)cc1 [Compound 1053],1000 to 10000
18,Cc1ccc(-c2ccc(C(=O)NCCCN3CCC(N4CCCCC4)CC3)cc2)c(F)c1 [Compound 1135],100 to 1000
19,O=C(NCCCCCCN1CCC(N2CCCCC2)CC1)c1ccc(Oc2ccccc2)cc1 [Compound 1088],100 to 1000

# Same assay, conditions: Hepatitis C virus, Huh7.5, 72 h
row,Structure (SMILES),EC50 [nM]
1,CC(C)(C)OC(=O)c1c(NC(=O)NCc2c(-c3cccnc3)sc3c2CCNC3)sc2c1CCCC2 [Compound 123],< 100
2,Cc1sc(NC(=O)NCc2c(-c3cccc(Cl)c3)sc3c2CCNC3)c(C(=O)OC2CCOC2)c1C (stereo not drawn) [Compound 357],100 to 1000
3,CCOC(=O)c1c(NC(=O)NCc2c(-n3cccc3)sc(CN(C)C)c2C)sc2c1CCCC2 [Compound 22],< 100
4,CCc1sc(NC(=O)NCc2c(-n3cccc3)sc3c2CCNC3)c(C(=O)OC(C)(C)C)c1C [Compound 318],100 to 1000
5,CC(C)(C)OC(=O)c1ccsc1NC(=O)NCc1c(C(F)(F)F)sc2c1CCNC2 [Compound 343],100 to 1000
6,CCN1CCc2c(sc(-n3cccc3)c2CNC(=O)Nc2sc3c(c2C#N)CCCC3)C1 [Compound 5],> 10000
7,Cc1sc(NC(=O)NCc2c(-c3cccc(F)c3)sc3c2CCNC3)c(C(=O)OC(C)(C)C)c1C [Compound 364],< 100
8,CC(C)(C)OC(=O)c1c(NC(=O)NCc2c(C(F)(F)F)sc3c2CCNC3)sc2c1CCOC2O (stereo not drawn) [Compound 320],< 100
9,CN1CCN(c2sc3c(c2CNC(=O)Nc2sc4c(c2C(=O)OC(C)(C)C)CCCC4)CCNC3)CC1 [Compound 144],100 to 1000
10,CC(C)(C)OC(=O)c1c(NC(=O)NCc2c(Br)sc3c2CC[N+](C)(C)C3)sc2c1CCCCC2 [Compound 255],< 100
11,CCOC(=O)c1c(N(C)C(=O)NCc2c(-n3cccc3)sc3c2CCN(CC)C3)sc2c1CCCC2 [Compound 55],1000 to 10000
12,CCOC(=O)c1c(NC(=O)NCc2c(-n3cccc3)sc3c2CCN(CC)C3)sc2c1CCC(C)C2 (stereo not drawn) [Compound 153],< 100
13,CCOC(=O)c1cc(-c2ccccc2)sc1NC(=O)NCc1c(-n2cccc2)sc2c1CCN(CC)C2 [Compound 40],100 to 1000
14,CCN1CCc2c(sc(Br)c2CNC(=O)Nc2sc3c(c2C(=O)OC)CCCC3)C1 [Compound 177],< 100
15,CC(C)(C)OC(=O)c1c(NC(=O)NCc2c(-c3ccc(C(=O)O)cc3F)sc3c2CCNC3)sc2c1CCCC2 [Compound 321],1000 to 10000
16,CC(C)(C)OC(=O)c1c(NC(=O)NCc2c(-c3cccc(O)c3)sc3c2CCNC3)sc2c1CCCC2 [Compound 252],100 to 1000
17,CCOC(=O)c1c(NC(=O)NCc2c(-n3cccc3)sc3c2CCN(Cc2ccc(OC)cc2)C3)sc2c1CCCC2 [Compound 18],< 100

row,Structure (SMILES),EC50 [nM]
1,CCOC(=O)c1c(NC(=O)NCc2c(C(F)(F)F)sc3c2CCNC3)sc2c1CCC(F)(F)C2 [Compound 219],< 100
2,CC(C)(C)OC(=O)c1c(NC(=O)NCc2c(Br)sc3c2CCNC3)sc2c1CCC2 [Compound 224],< 100
3,CC(C)(C)OC(=O)c1c(NC(=O)NCc2c(-c3cccc(C(F)(F)F)c3)sc3c2CCNC3)sc2c1CCCC2 [Compound 204],100 to 1000
4,Cc1sc(NC(=O)NCc2c(-c3cccc(F)c3)sc3c2CCN(CCN(C)C)C3)c(C(=O)OC(C)(C)C)c1C [Compound 366],< 100
5,CCOC(=O)c1c(NC(=O)NCc2c(C(F)(F)F)sc3c2CCN(C)C3)sc2c1CCCC2 [Compound 197],< 100
6,CCOC(=O)c1c(NC(=O)NCc2c(C(F)(F)F)sc3c2CCNC3)sc2c1CC(C)CC2C (stereo not drawn) [Compound 208],< 100
7,CN(C)CCN1CCc2c(sc(-c3cccc(F)c3)c2CNC(=O)Nc2sc3c(c2C(=O)OC(C)(C)C)CCCC3)C1 [Compound 359],< 100
8,CC(C)(C)OC(=O)c1c(NC(=O)NCc2c(-c3ccoc3)sc3c2CCNC3)sc2c1CCOC2 [Compound 331],< 100
9,CC(C)(C)OC(=O)c1c(NC(=O)NCc2c(-n3cccc3)sc3c2CCN(C2CCC2)C3)sc2c1CCCC2 [Compound 260],< 100
10,Cc1cncc(-c2sc3c(c2CNC(=O)Nc2sc4c(c2C(=O)OC(C)(C)C)CCCC4)CCNC3)c1 [Compound 322],100 to 1000
11,O=C(NCc1c(C(F)(F)F)sc2c1CCNC2)Nc1sc2c(c1C(=O)OCC(F)(F)F)CCCC2 [Compound 329],< 100
12,CCN1CCc2c(sc(C(F)(F)F)c2CNC(=O)Nc2sc3c(c2C(=O)OC(C)(C)C)CCCCC3)C1 [Compound 303],< 100
13,CCN1CCc2c(sc(-n3cccc3)c2CNC(=O)Nc2sc3c(c2C(=O)OC(C)(C)C)CCC3)C1 [Compound 114],< 100
14,CCc1sc2c(c1CNC(=O)Nc1sc3c(c1C(=O)OC(C)(C)C)CCCCC3)CCNC2 [Compound 312],< 100
15,CCOC(=O)c1c(NC(=O)NCc2c(C(F)(F)F)sc3c2CCN(C(=O)[C@@H](N)C(C)C)C3)sc2c1CCCC2 [Compound 345],< 100
16,CN1CCc2c(sc(-n3cccc3)c2CNC(=O)Nc2sc3c(c2C(=O)OC(C)(C)C)CCCCC3)C1 [Compound 301],< 100
17,CC(C)N1CCc2c(sc(C(F)(F)F)c2CNC(=O)Nc2sc3c(c2C(=O)OC(C)(C)C)CCCC3)C1 [Compound 186],< 100
